A word on the inhibition in vivo: it is how much of the control response was suppressed. A word on the IC50: it is the concentration at which inhibition is half-maximal.

Test [1] in a line: Antitumor activity in mouse adenocarcinoma model at 100 ppm relative to control. In kind it is functional.
The nature of test [2]: Antitumor activity in mouse adenocarcinoma model at 500 ppm relative to control. In kind it is functional.
Test [3] has as its system Mus musculus. The test can be described thus: Anti-inflammatory activity in mouse assessed as inhibition of croton oil-induced ear edema at 0.3 umol/cm2 administered topically relative to control. The test is classed as functional.
For test [4], the system named is Mus musculus. Nature of the test: Anti-inflammatory activity in mouse assessed as inhibition of croton oil-induced ear edema at 10 umol/cm2 administered topically relative to control. In kind it is functional.
For test [5], the system named is Mus musculus. The test can be described thus: Anti-inflammatory activity in mouse assessed as inhibition of carrageenan-induced paw edema at 10 mg/kg preincubated for 5 hrs followed by carrageenan challenge relative to control. In kind it is functional. In general terms: Carrageenan injected into the paw causes an acute inflammation.
Test [6] deals with RAW264.7. The test can be described thus: Anti-inflammatory activity in mouse RAW264.7 cells assessed as inhibition of LPS-induced COX-2 gene expression relative to control. The test is classed as functional.
For test [7], the system named is Neutrophil. The test can be described thus: Anti-inflammatory activity in human neutrophils assessed as inhibition of fMLP/CB-induced superoxide anion generation. The test is classed as functional, cell-based.
The subject of test [8] is RAW264.7. The test can be described thus: Anti-inflammatory activity in mouse RAW264.7 cells assessed as inhibition of LPS-induced iNOS gene expression relative to control. The test is classed as functional.
Test [9] deals with RAW264.7. The test can be described thus: Anti-inflammatory activity in mouse RAW264.7 cells assessed as inhibition of LPS-induced NO production. The test is classed as functional, cell-based.
The test system of test [10] is Mus musculus. Nature of the test: Anti-parkinson's activity in intranigral LPS-induced Parkinson's disease-like C57BL/6 mouse model assessed as inhibition of microglial hyperactivation by measuring IBA1 positive cells at 25 mg/kg, sc once daily for 21 days starting from day 1 post LPS treatment by immunohistochemistry relative to control. To be noted: C57BL/6, sc. The test is classed as functional.

The test system of test [11] is Mus musculus. Nature of the test: Anti-parkinson's activity in intranigral LPS-induced Parkinson's disease-like C57BL/6 mouse model assessed as protection against dopaminergic neuronal loss in substantia nigra by measuring increase in TH-positive neuronal cells at 25 mg/kg, sc once daily for 21 days starting from day 1 post LPS treatment by immunohistochemistry relative to control. The test is classed as functional.

The test system of test [12] is Mus musculus. The test can be described thus: Anti-parkinson's activity in intranigral LPS-induced Parkinson's disease-like C57BL/6 mouse model assessed as astrocytes activation at 25 mg/kg, sc once daily for 21 days starting from day 1 post LPS treatment by confocal fluorescence microscopic method relative to control. In kind it is functional.
The subject of test [13] is Mus musculus. Nature of the test: Anti-parkinson's activity in intranigral LPS-induced Parkinson's disease-like C57BL/6 mouse model assessed as inhibition of microglial hyperactivation by measuring IBA1 positive cells at 19.3 mg/kg, sc once daily for 21 days starting from day 1 post LPS treatment by immunohistochemistry relative to control. The test is classed as functional. As to conditions: C57BL/6, sc.

Test [14] has as its system Mus musculus. The test can be described thus: Anti-parkinson's activity in intranigral LPS-induced Parkinson's disease-like C57BL/6 mouse model assessed as protection against dopaminergic neuronal loss in substantia nigra by measuring increase in TH-positive neuronal cells at 19.3 mg/kg, sc once daily for 21 days starting from day 1 post LPS treatment by immunohistochemistry relative to control. In kind it is functional.

Test [15] concerns Mus musculus. Nature of the test: Anti-parkinson's activity in intranigral LPS-induced Parkinson's disease-like C57BL/6 mouse model assessed as astrocytes activation at 19.3 mg/kg, sc once daily for 21 days starting from day 1 post LPS treatment by confocal fluorescence microscopic method relative to control. The test is classed as functional.

With `C=C(C)CCC/C(C)=C/COc1ccc(/C=C/C(=O)N[C@@H](CCCNC(=N)N[N+](=O)[O-])C(=O)O)cc1OC`, the results for the Activity in test [1] and in test [2] were 84% and 94%, respectively.
`CC(C)=CCOc1ccc(CCCO)cc1`: the “inhibition (INH)” value turned out to be 28% in test [3] and 68% in test [4].
As for `CC(C)=CCOc1c2occc2cc2ccc(=O)oc12` [PENTOSALEN], the inhibition in vivo at 10 mg/kg in [5] was determined as 54.4%. For the same compound, the “inhibition (INH)” value in test [6] turned out to be 66.7%; in [8] it was 69.2%. Besides, the IC50 in test [7] came out at 1.7 µM.
`COc1c(OC/C=C(\C)CCC=C(C)C)ccc2ccc(=O)oc12` [COLLININ]: the IC50 in test [9] came out at 5.9 µM.
Consider `CC(C)=CCOc1ccc(CCO)cc1` [ETROGOL], for which the “inhibition (INH)” value in [3] came out at 32%; in [4], 78%.
For the compound `CC(C)=CCC/C(C)=C/COc1ccc2ccc(=O)oc2c1` [AURAPTENE], the inhibition in vivo at 25 mg/kg in [10] turned out to be 39.1%. In test [11], the “fold change (FC)” value amounted to 2.2. In [12], the Activity was found to be 68.4%.
Take `CC(C)=CCOC1=CC(=O)c2ccccc2C1=O`: the “inhibition (INH)” value in test [3] amounted to 14%.
For the compound `COc1cc(CO)cc(OC)c1OCC=C(C)C`, the results for the “inhibition (INH)” value in test [3] and in [4] were 31% and 77%, respectively.
Turning to `CC(C)=CCOc1ccc2ccc(=O)oc2c1` [7-PRENYLOXYCOUMARIN], in test [13], the inhibition in vivo at 19.3 mg/kg was found to be 19.1%. In test [14], the “fold change (FC)” value was found to be 2.2. Also, the Activity in test [15] is reported as 65.3%.

The values above are taken from ChEMBL document CHEMBL4152182, “Recent acquisitions on oxyprenylated secondary metabolites as anti-inflammatory agents” (Eur J Med Chem, 2018).
